The values below come from patent publication US20110165652A1, “COMPOSITIONS, METHODS AND SYSTEMS FOR SINGLE MOLECULE SEQUENCING” (LIFE TECHNOLOGIES CORPORATION, priority 2008, published 2011).

Entries after “also recorded” stand apart in the source; their conditions may differ.

Holding throughout (format): biochemical
The subject of data set [1] is 5′ fluorescein-labeled primer:template duplex. Description: Replication fidelity: primer extension with incorrect (non-complementary) gamma-labeled nucleotide. The settings on record: incorrect gamma-labeled nucleotide in lieu of the complementary one. As to the method:
To assay the replication fidelity of each mutant Phi29 polymerase protein, primer extensions were carried out in the same manner, except that an incorrect (i.e., non-complementary) gamma-labeled nucleotide was added to the extension mixture in lieu of the complementary nucleotide, and the amount of extended product following extension in presence of the incorrect nucleotide was analyzed.

For data set [2] the test system is unchanged. Description: Ensemble primer extension with gamma-labeled dNTP by Phi29 mutant protein. Particulars: for Ensemble Extension Activity: γ-nucleotide incorporation: relative to parent Phi29 exo(−) D12A/D66A, 0.5 μM or 5 μM gamma-labeled dNTP, 10 seconds to 5 minutes; for extension (FIG. 70C, 70D): ensemble PAGE analyses. The source says: Table 1, below, summarizes the ability of each mutant Phi29 polymerase to incorporate gamma-labeled nucleotides (as indicated in the column entitled “Ensemble Extension Activity”), fidelity of replication (as indicated in the column entitled “Fidelity”) and for activity in a single-molecule detected system, as depicted in FIGS. 20-59′ and 69-76 and associated description (see below), and indicated in the last column, entitled “Activity on Detection System.” Each and every mutation introduced into a given Phi29 mutant protein is listed in the column entitled “Mutations”; mutations are designated by the original amino acid/its position/its replacement, e.g., V250A means that valine at position 250 was replaced by alanine by site specific mutagenesis. If two or more amino acid substitutions are made, then each is designated as above and separated by a “/”. The predicted effect of a given mutation on polymerase activity, based on structure-function analysis of Phi29 polymerase, is provided in the column entitled “Expected Effect.” The various Phi29 mutants generated via selective mutagenesis, along with any applicable results of extension studies, fidelity assays and single molecule detection studies using each mutant protein, are collectively summarized in Table 1, below. To perform the extension studies, 330 nM Phi29 mutant protein and 100 nM 5′ fluorescein-labeled primer:template duplex were co-incubated in a solution comprising 50 mM Tris (pH 7.0), 2 mM MnCl2, 2 mM DTT, 0.1% Triton-X-100, 0.01% Tween-20. The reactions were initiated by addition of 0.5 μM or 5 μM of gamma-labeled dNTP, and quenched via addition of 30 mM EDTA at timepoints ranging from 10 seconds to 5 minutes. The reaction products were then separated on a 20% denaturing acrylamide gel and imaged on a Bio-Rad Molecular Imager FX. The intensity of each reaction product was quantified using Bio-Rad Quantity One software. FIGS. 20-59′ depict the results of extension studies conducted using specific Phi29 mutants.

For data set [3], the system named is template specifying incorporation of a single γ-labeled nucleotide. Description: Real time on-surface single molecule detection of γ-labeled nucleotide incorporation. The settings on record: for Activity on Detection System: more signals: number of signals relative to parent enzyme; for Activity on Detection System: long duration signals / Activity on Detection System: Signals detected (timing of appearance) / Activity on Detection System: high ASB signals: relative to parent enzyme. As to the method: Real time “On surface” experiments were performed to characterize the activity of the Phi29 variants on an exemplary single molecule sequencing system (FIGS. 72A and B). Chambered slides were prepared to facilitate injection and multiple experiments data collection from several chambers using a single slide. The template specified incorporation of a single γ-labeled nucleotide. The samples were excited using a 488 nm Argon ion laser at 2.5 mW and the data were collected at 25 ms integration time. Each stream of data was collected for 1500 frames, consecutive streams were collected for ˜5 minutes by moving to new fields of views (FOVs). FRETAN software was used to obtain the donor and acceptor traces.
After trace analysis, the selected signals (with acceptor signal over background greater than 4, i.e., ASN≧4) were characterized by examining attributes including duration, ASN and timing of signal appearance (i.e., start of signals). The variants that are of special interest include Variants 2 and 3.

The nature of data set [4]: Exonuclease activity of Phi29 variants. The settings on record: printed in column Ensemble Extension Activity or in text.
In data set [5] the test system is γ-dGTP. Description: 7-base homopolymeric extension reactions (FIG. 19B, 19C). Particulars: for extension under limiting conditions: 1 μM γ-dGTP, 30 second to 1 minute extension time. The text has this:
When the aspartic acid at position 456 is mutated, the activity is reduced but still detectable. FIG. […]
Three residues that have been implicated in catalysis of nucleotide incorporation by phi29 DNA polymerase are D458, D456, and V250 (Berman, Kamtekar et al., 2007). […] In one embodiment, D456 is mutated to glutamic acid, thus distorting the active site, but still allowing catalysis due to the presence of the functional group. The backbone of V250 additionally appears to play a role in catalysis; in some embodiments, the chemistry step will be slowed by mutating the V250 residue to an isoleucine or alanine in order to slow the chemistry step.

Data set [6] relates to template specifying incorporation of a single γ-labeled nucleotide followed by a base-labeled nucleotide. Description: On-surface single molecule detection, single γ-labeled nucleotide followed by a base-labeled nucleotide. Particulars: for frequency of γ-signals detected: single γ and base-labeled nucleotide incorporation. The method, then:
Similar experiments were performed using a template specifying incorporation of a single γ-labeled nucleotide followed by a base-labeled nucleotide and data were analyzed as described above.
Example sets of signals detected using Phi29 variants over time are shown (FIGS. 72-75). […] Next, considering the appearance of BL-signals, the signals for the parent enzyme (#1) are nicely distributed and follow a Gaussian distribution (peak in the 121-180 second bin), whereas Variant 2's BL-signals appear between 0-120 seconds—again indicating an earlier appearance of signals when Variant 2 is compared with the parent enzyme.

Turning to “D458N: Phi29 exo(−) (D12A/D66A) polymerase mutant [Variant D458N]”, the “Fidelity (mis-incorporation)” value in data set [1] is “No activity”. The “Ensemble Extension Activity: γ-nucleotide incorporation” value in data set [2] is recorded as “No activity”.

Regarding “E375Y: Phi29 exo(−) (D12A/D66A) polymerase mutant [Variant E375Y]”, in data set [3], the “Activity on Detection System: more signals” value (“Activity … more signals” for short) is 3x more signals and the “Activity on Detection System: long duration signals” value (from here on “Activity … long duration signals”) is given as “More long duration”. In addition, the “extension (FIG. 70C, 70D)” value in data set [2] (γ-nucleotides) is recorded as “most significant increase in extension”. The “Ensemble Extension Activity: γ-nucleotide incorporation” value in data set [2] was “More efficient”.

Regarding “E375A/Q380A: Phi29 exo(−) (D12A/D66A) polymerase mutant”, the “Activity … more signals” value in data set [3] came to 3.5x more signals. Besides, in data set [2], the “Ensemble Extension Activity: γ-nucleotide incorporation” value is “More efficient”.

Take “D169A: Phi29 polymerase variant generated by total DNA synthesis [Variant D169A]”: the exonuclease activity entry in data set [4] is recorded as “exo deficient”.

As for “D456N: Phi29 exo(−) (D12A/D66A) polymerase mutant [Variant D456N]”, the results for the “extension under limiting conditions” value in data set [5] and in data set [5] (listed as D456 to an asparagine) were “significant impact” and “significantly reduced extension”, respectively. In data set [5] (5 minutes with 5 μM nucleotides), the “extension under permissive conditions” value is on record as “somewhat reduced extension”. In addition, in data set [3], the “Activity … more signals” value was “Fewer signals”. For the same substance, the “Ensemble Extension Activity: γ-nucleotide incorporation” value in data set [2] was “Impaired”.

As for “N387A: Phi29 exo(−) (D12A/D66A) polymerase mutant [Variant N387A]”, the “Activity … more signals” value in data set [3] was “Fewer signals”. The “Ensemble Extension Activity: γ-nucleotide incorporation” value in data set [2] is “Significantly decreased γ-”.

With “T15I: mutant based on wild type Φ29 DNA polymerase [Variant T15I]”, the exonuclease activity entry in data set [4] was “Still has exo”.

In the case of “D12A/D66A/D169A: Phi29 polymerase exo minus variant”, the exonuclease activity result in data set [4] was “exo deficient”.

As to “N62D: mutant based on wild type Φ29 DNA polymerase [Variant N62D]”, the exonuclease activity result in data set [4] is recorded as “Still has exo”.

For “E375C: Phi29 exo(−) (D12A/D66A) polymerase mutant [Variant E375C]”, in data set [3], the “Activity … more signals” value is on record as “Slightly higher”, the “Activity on Detection System: Signals detected (timing of appearance)” value (shortened to “Activity … (timing of appearance)”) is given as “earlier” and the “Activity on Detection System: high ASB signals” value (shortened to “Activity … high ASB signals”) is “More high ASB signals”. Besides, the “Ensemble Extension Activity: γ-nucleotide incorporation” value in data set [2] is “More efficient”.

As for “D456S: Phi29 exo(−) (D12A/D66A) polymerase mutant [Variant D456S]”, in data set [3], the “Activity … more signals” value is listed as “Fewer signals”. Besides, in data set [2], the “Ensemble Extension Activity: γ-nucleotide incorporation” value is reported as “Impaired”.

With “Q380A: Phi29 exo(−) (D12A/D66A) polymerase mutant [Variant Q380A]”, the “Activity … more signals” value in data set [3] came to 2.5x more signals. Moreover, the “Fidelity (mis-incorporation)” value in data set [1] is listed as “No mis-”. The “Ensemble Extension Activity: γ-nucleotide incorporation” value in data set [2] is “More efficient”.

Consider “V250I: Phi29 exo(−) (D12A/D66A) polymerase mutant [Variant V250I]”, for which, in data set [3], the “Activity … long duration signals” value was “More long duration”. Also, in data set [2], the “Ensemble Extension Activity: γ-nucleotide incorporation” value is “Decreased rate”.

“V250A/E375C: Phi29 exo(−) (D12A/D66A) polymerase mutant”: in data set [3], the “Activity … more signals” value stood at 3.5x more signals, the “Activity … (timing of appearance)” value is “earlier” and the “Activity … long duration signals” value is recorded as “More long duration”. Besides, the “Fidelity (mis-incorporation)” value in data set [1] is on record as “appears to remain intact; also recorded: No mis-”. Also, in data set [2], the “Ensemble Extension Activity: γ-nucleotide incorporation” value is on record as “Decreased rate”.

With “D456E: Phi29 exo(−) (D12A/D66A) polymerase mutant [Variant D456E]”, the “extension under limiting conditions” value in data set [5] is “significant impact”. For the same substance, the “Activity … more signals” value in data set [3] is given as “Fewer signals”. For the same substance, the “Ensemble Extension Activity: first base extension” value in data set [2] (γ-nucleotides) is “Increased first”.

Consider “Parent Enzyme Phi29exo(−) D12A/D66A: Phi29 polymerase with mutations D12A and D66A, SEQ. ID: 3, reduced exonuclease activity”, for which, in data set [4] (listed as D12A/D66A), the exonuclease activity result is given as “exo deficient”. Also, in data set [4] (listed as Phi29 exo(−)), the exonuclease activity entry is “reduced exonuclease activity”. The “Activity … more signals” value in data set [3] is on record as “Benchmark”. For the same substance, in data set [6], the “appearance of BL-signals after injection (window; peak bin for parent)” value lay in the range of 121 to 180 s and the “frequency of γ-signals detected” value is given as “few signals are detected”. For the same substance, the “Fidelity (mis-incorporation)” value in data set [1] is on record as “No mis-”. Further, the “Ensemble Extension Activity: γ-nucleotide incorporation” value in data set [2] was “Benchmark”.

“V250A/E375A/Q380A: Phi29 exo(−) (D12A/D66A) polymerase mutant”: in data set [3], the “Activity … more signals” value came out at 3x more signals, the “Activity … (timing of appearance)” value is on record as “earlier”, the “Activity … high ASB signals” value is “More high ASB signals” and the “Activity … long duration signals” value is “More long duration”. Moreover, in data set [1], the “Fidelity (mis-incorporation)” value was “appears to remain intact; also recorded: No mis-”. For the same substance, the “Ensemble Extension Activity: γ-nucleotide incorporation” value in data set [2] is “Decreased rate”.

Regarding “V250A/E375Y: Phi29 exo(−) (D12A/D66A) polymerase mutant”, in data set [3], the “Activity … more signals” value is listed as 3x more signals, the “Activity … high ASB signals” value is “More high ASB signals” and the “Activity … long duration signals” value is given as “More long duration”. Also, in data set [3] (signals with ASN≧4), the “ASN of signals (population of molecules)” value is on record as “higher ASN”, the “duration of signals (population of molecules)” value is reported as “longer duration” and the “frequency of events detected” value is on record as “higher frequency of events detected”. Also, in data set [6], the “appearance of BL-signals after injection (window; peak bin for parent)” value lay in the range of 0 to 120 s, the “time after injection in which most of the γ-signals are detected” value was at most 60 s and the “frequency of γ-signals detected” value was “higher frequency”. In data set [1], the “Fidelity (mis-incorporation)” value is “appears to remain intact; also recorded: No mis-”. The “extension (FIG. 70C, 70D)” value in data set [2] (γ-nucleotides, listed as 2) was “slowed in incorporation”. Further, the “extension (FIG. 70C, 70D)” value in data set [2] (γ-nucleotides, listed as Variant 2) is reported as “improved”. Moreover, the “Ensemble Extension Activity: γ-nucleotide incorporation” value in data set [2] is given as “Decreased rate”.
